Here are results for four molecules from paper PMC10563079 (Molecules, 2023).

Data set [1] deals with T1, full-length PHGDH (1-533) (Homo sapiens, UniProt O43175).
T1 construct: the full-length PHGDH (1-533); made in house
T1 sequence (O43175 1-533): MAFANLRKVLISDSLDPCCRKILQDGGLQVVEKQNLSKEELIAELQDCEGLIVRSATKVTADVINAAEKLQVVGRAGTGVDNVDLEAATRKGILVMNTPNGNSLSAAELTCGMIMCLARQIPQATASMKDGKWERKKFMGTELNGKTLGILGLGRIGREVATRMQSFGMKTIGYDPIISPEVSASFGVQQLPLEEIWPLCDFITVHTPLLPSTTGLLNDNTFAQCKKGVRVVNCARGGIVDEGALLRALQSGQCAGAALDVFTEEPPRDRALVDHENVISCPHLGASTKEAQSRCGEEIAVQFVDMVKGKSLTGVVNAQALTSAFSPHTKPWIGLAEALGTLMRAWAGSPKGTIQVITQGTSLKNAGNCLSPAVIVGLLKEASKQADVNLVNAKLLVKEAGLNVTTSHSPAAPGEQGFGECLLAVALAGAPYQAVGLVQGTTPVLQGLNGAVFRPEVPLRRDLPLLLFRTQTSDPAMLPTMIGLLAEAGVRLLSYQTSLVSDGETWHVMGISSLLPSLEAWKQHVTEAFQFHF
In words: full-length PHGDH enzyme activity assay (NADH fluorescence). The data set is classed as biochemical. The note with it: IC50 value (μM), full-length PHGDH activity. The procedure: (§1) PHGDH activity in the presence of peptides was measured in 96-well plates (100 μL per well) at 25 °C, through monitoring the NADH fluorescence (excitation at 360 nm and emission at 460 nm) over time. PAST1 and its substrate glutamate were also included in order to prevent product inhibition. In the enzyme assays, protein expression and purification, including the truncated version of PHGDH (sPHGDH, 1-307), the full-length PHGDH (1-533), and PAST1, were carried out as described in our previous papers. To evaluate the effects of peptides on enzyme activity, the peptides were pre-incubated with enzyme samples (sPHGDH 453.3 nM or PHGDH 30.9 nM) in the assay buffer (HEPES 50 mM, pH 7.5, 10 mM MgCl2, and 1 mM EDTA) for 12 h. Then, 1.98 μM PAST1, 1 mM NAD^+, and 30 mM glutamate were added and pre-incubated for 10 min before initiating the enzyme reaction via the addition of the substrate (1 mM 3-PG). Fluorescence signals were recorded for 3 min with the kinetics-reading mode of the Biotek plate reader (Synergy). IC50 values were obtained through fitting the data using a three-parameter Hill model of the graph of log dose against the percentage inhibition from three repeated experiments. For those peptides containing two disulfide bonds, a second step of oxidation reaction was carried out to generate the second disulfide pair. […] The purified Acm-protected peptide was then treated with iodine (I2, 1 wt% in MeOH), dropwise under acidic conditions until the solution became brown.

The target of the next data set is T2, sPHGDH (Homo sapiens, UniProt O43175).
T2 construct: the truncated version of PHGDH (sPHGDH, 1-307); made in house
T2 sequence (O43175 1-307): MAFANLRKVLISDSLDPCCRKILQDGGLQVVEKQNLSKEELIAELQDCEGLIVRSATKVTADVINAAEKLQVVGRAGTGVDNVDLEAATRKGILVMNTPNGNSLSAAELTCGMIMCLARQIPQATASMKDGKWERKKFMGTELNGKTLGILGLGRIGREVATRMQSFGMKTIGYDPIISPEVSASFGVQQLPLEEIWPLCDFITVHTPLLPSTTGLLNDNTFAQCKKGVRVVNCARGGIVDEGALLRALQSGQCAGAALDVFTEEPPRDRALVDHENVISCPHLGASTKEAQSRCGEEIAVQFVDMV
In words: Microscale Thermophoresis (MST) binding assay. Here is the method:
In this study, we first used Microscale Thermophoresis assays (MST) to evaluate whether the active peptides found in the enzyme inhibition assay directly bind sPHGDH (Table 2).
The binding affinity between the recombinant sPHGDH and cyclic peptides was measured with a NanoTemper Monolith NT.115 instrument (NanoTemper Technologies, Munich, Germany). sPHGDH was first adjusted to a concentration of 10 μM and then labeled with Monolith™ NT.115 Protein Labeling Kit RED-NHS (NanoTemper Technologies, Germany), according to the protocol of the manufacturer. After the protein labeling experiment was completed, sPHGDH was diluted with binding buffer (50 mM HEPES, pH 7.5, 1 mM EDTA, 10 mM MgCl2, 100 mM NaCl, and 0.005% Tween 20) to ensure that the fluorescent intensity of sPHGDH during the MST assay was about 500 RU. In this assay, the final concentration of sPHGDH after mixing with the peptide was 20 nM. Subsequently, the peptides were serially diluted in binding buffer (16 points, 1:2 dilutions, from 0.5 mM), then mixed and incubated with an equal volume of diluted sPHGDH at room temperature for 16 h. After incubation, the samples were loaded into premium treated capillaries and measured by the NanoTemper Monolith NT.115 instrument (NanoTemper Technologies, Germany). […]

The next data set has as its target T3, sPHGDH (1-307) (Homo sapiens, UniProt O43175).
T3 construct: the truncated version of PHGDH (sPHGDH, 1-307); made in house
T3 sequence (O43175 1-307): T2 sequence (O43175 1-307)
In words: sPHGDH enzyme activity assay (NADH fluorescence). The format is biochemical. As to conditions: sPHGDH; 12 h pre-incubation; read-out: IC50 Value. Here is the method: as §1

Data set [2] concerns the molecule itself. In words: cross-linking; sPHGDH 5 µM with peptides (0, 10, 50, 100, 250, 500 µM) and 2.5 mM BS3 in PBS (40 mM, pH 7.3), 25 °C, 30 min; SDS/PAGE; dimer to monomers.
The target in data set [3] is truncated version of PHGDH (sPHGDH, 1-307) (human) (UniProt O43175).
Data set [4] has the same target. The source holds these as a separate data set.

What is called IC50 is the concentration needed to halve the response being measured. As usually defined, the Kd is a measure of binding affinity in units of concentration. The term stoichiometry N denotes the number of molecules, sites or subunits per partner or assembly.

Where “and” joins values, the source holds several entries; their conditions need not be identical. Equal entries are not always repeated. Where two headings read alike, the source gives them in different places. Bridge positions count the residues as written; N and C are the ends. Ends that are not written are not given here. Peptide text beside a SMILES is read from it.

`CSCC[C@@H]1NC(=O)[C@@H]2CSSC[C@H](NC(=O)[C@H](Cc3c[nH]c4ccccc34)NC(=O)[C@H](CCCCN)NC(=O)CNC(=O)[C@H](CC(=O)O)NC(=O)[C@H](CCCNC(=N)N)NC1=O)C(=O)N[C@@H](CCCNC(=N)N)C(=O)N[C@@H](CCCCN)C(=O)N[C@@H](CCCCN)C(=O)N[C@H](C(=O)O)CSSC[C@H](NC(C)=O)C(=O)N[C@@H]([C@@H](C)O)C(=O)N1CCC[C@H]1C(=O)N[C@@H](CCC(N)=O)C(=O)N[C@@H](C)C(=O)N[C@@H]([C@@H](C)O)C(=O)N[C@@H](C)C(=O)N2` [Cyc2-3, C1TPQA TAC8MR DGKWC15 RKKC19] (Ac-CTPQATACMRDGKWCRKKC-OH; disulfide 1-19, 8-15): in data set [1], the IC50 was 53.1 µM and 32.9 µM. The Kd on sPHGDH came out at 5.1 ± 1 µM. As for `CSCC[C@@H]1NC(=O)[C@H](CO)NC(=O)[C@H](CC(C)C)NC(=O)[C@H]([C@@H](C)O)NC(=O)[C@H](C)NC(=O)[C@H](CCC(N)=O)NC(=O)[C@@H]2CCCN2C(=O)[C@H]([C@@H](C)O)NC(=O)[C@@H](NC(C)=O)CSSC[C@@H](C(=O)O)NC(=O)[C@H](CCCCN)NC(=O)[C@H](CCCCN)NC(=O)[C@H](CCC(N)=O)NC(=O)[C@H](CCC(=O)O)NC(=O)[C@H](Cc2c[nH]c3ccccc23)NC(=O)[C@H](CO)NC(=O)CNC(=O)[C@H](CC(N)=O)NC(=O)[C@H](CCCCN)NC1=O` [Cyc1-12, C1TPQA TLSMK NGSWE QKKC19] (Ac-CTPQATLSMKNGSWEQKKC-OH; disulfide 1-19), the IC50 at sPHGDH (1-307) was 5.6 ± 1.4 µM. In addition, the Kd at sPHGDH (MST, sPHGDH 20 nM, 1:1 binding mode, read-out: KD) came to 13.4 ± 3.1 µM.

B1: truncated version of PHGDH (sPHGDH, 1-307) (domain or fragment, human, UniProt O43175 1-307, looked up)
chain: T2 sequence (O43175 1-307)
modifications: labelled with Monolith NT.115 Protein Labeling Kit RED-NHS (in the MST assay only)
notes: human phosphoglycerate dehydrogenase (PHGDH), catalytic unit, residues 1-307; Exists predominantly as a homo-dimer with a small fraction of monomer; also called catalytic unit of PHGDH; source: recombinant
For the molecule B1, the “stoichiometry N” value in data set [2] stood at 2.

B2: cyclic peptide cyc1-5 (peptide)
peptide: CTPQATASMLDGKWEWKKC
modifications: disulfide 1-19; not fully specified (N-terminus); printed as C_1_TPQA TASML DGKWE WKKC_19_
B2: the IC50 of inhibition of sPHGDH enzyme activity (NADH fluorescence); the pair blocked is the sPHGDH homo-dimer (m1+m1) in data set [3] turned out to be 13.4 µM. This molecule also showed an IC50 of inhibition of sPHGDH enzyme activity (NADH fluorescence); the pair blocked is the sPHGDH homo-dimer (m1+m1), differs from the table in data set [4] of 13.7 µM.
